{
  "source": "patent US20130085146A1",
  "about": "“LIPID-DRUG FORMULATIONS AND METHODS FOR TARGETED DELIVERY OF LIPID-DRUG COMPLEXES TO LYMPHOID TISSUES” (priority 2003, published 2013)",
  "key": {"[1]": {"assay": "Degree of drug incorporation into lipid-drug complex (size-exclusion chromatography)", "type": "physicochemical", "description": "(§1) The mixture was rotor-evaporated under N2 and reduced pressure. Then it was resuspended in sterile phosphate-buffered saline (PBS, pH 7.4), to a final lipid concentration of 50 mM, and homogenized with a probe sonicator until a uniform particle size of about 50 nm to about 80 nm diameter was reached. Sonication is preferably done until sonicated unilamellar vesicles that are stable at their minimum diameter are obtained. […] The size and zeta potential (surface potential at hydrodynamic plane) of the lipid-drug complex was monitored using a Malvern Zetasizer 5000 operating at photon correlation spectroscopy mode and electrophoretic mode, respectively. […] The rest of the preparation procedure remains the same.\nThe degree of drug incorporation into the lipid-drug complex was determined by subjecting a small fraction of the preparation to size-exclusion chromatography using a Biogel A-0.5 M media (1×10 cm). […] By analyzing the amount of fraction in the lipid-associated complex, and free form with respect to the total amount loaded onto the column, the percentage of drug association was determined. (Lian, T. and Ho, R. J. Y., Recent trend and progress in liposome drug delivery systems; an invited minireview, J Pharm Sci 90:667-680 [2001]). To determine pH-dependent drug dissociation from the lipid-drug complex, the lipid-drug complex (originally prepared in pH 7.4 and free of unincorporated drug) can be incubated at, e.g., pH 7, 6, 5.5, 5, 4, 3.5 for 30 min. Subsequently, the mixture can be subjected to the degree of drug incorporation analysis described above. For animal studies, the drug-lipid complex formulations were further analyzed for sterility and endotoxin contamination. To ensure sterility and prevent underestimation of endotoxin that binds to lipids, the lipid-drug complex preparations were subjected to a blood agar culture test for 7 days at 37° C. for detection of microbial contamination.\nSubsequently, the % lipid-association was determined by separating free from lipid-associated drug by size-exclusion column chromatography. Data expressed were means of duplicate preparations for indicated pH value."}, "[2]": {"assay": "Particle size of lipid-drug complex (photon correlation spectroscopy)", "type": "physicochemical", "conditions": "drug associated with lipid membranes, pH 7.4", "description": "as §1"}, "HIV-2287 [3]": {"system": "HIV-2287", "assay": "microbe, parasite or virus in culture", "type": "cell-based, HIV-2", "description": "(§2) The effective concentrations that produce half the maximum anti-HIV activity (EC50) were determined based on non-linear regression of each set of data, representing the frequency of replication.\nAfter incubating the cells at 37° C. in RPMI 1640 containing 10% fetal calf serum for 4 days (optimum detection time), the presence of virus-infected cells was determined visually by the presence of syncytia and was subsequently confirmed by ELISA detection of the presence of HIV-2 antigen. Experiments were repeated on at least two different days with each determination done in quadruplicate samples, and the data presented in FIG. 3 are the mean % virus-infected cells."}, "HIV-1LAV": {"system": "HIV-1LAV", "assay": "Inhibition of HIV-1LAV replication in human PBMCs (p24 antigen)", "type": "cell-based", "conditions": "Human immunodeficiency virus 1, PBMC", "description": "as §2"}, "[4]": {"assay": "Indinavir accumulation in lymph nodes after oral free indinavir", "type": "in vivo, macaques", "conditions": "macaque; for Kp at […]: po, 25 mg/kg; for Kp at […] / Kp at 2 hr / Kp at 3.75 hr: read-out: Lymph node to plasma ratio; for Kp at 2 hr / Kp at 3.75 hr: oral 25 mg/kg; for Kp at 2 hr / concentration at 2 hr: animal 94094; for Kp at 3.75 hr / concentration at 3.75 hr: animal 94096; for concentration at 2 hr / concentration at 3.75 hr: oral 25 mg/kg in solution"}, "HIV-2287 [5]": {"system": "HIV-2287", "type": "in vivo, Macaca nemestrina", "conditions": "for CD4+ T cell, After: after therapy; for CD4+ T cell, After / CD4+ T cell, Before: SC 22 mg/kg daily, 14 doses; for CD4+ T cell, Before: before therapy", "description": "Total RNA was isolated from plasma and lymphoid tissues using a Purescript RNA Isolation Kit (Gentra Systems, Minneapolis, Minn.). Viral RNA was measured using a quantitative, internally-controlled RNA PCR to estimate the number of HIV-2 copies/ml of sample (Watson A, Ranchalis J, Travis B, et al., Plasma viremia in macaques infected with simian immunodeficiency virus: plasma viral load early in infection predicts survival, J Virol 1997;71 (1):284-90) for some of the experiments and real-time quantitative PCR. The two methods have been validated to ensure consistency in estimating viral RNA concentration in plasma and tissues. Briefly, reverse transcription and PCR were performed as described. Because semi-quantitative methods have been well-documented (Watson, et al., 1997), only details on RT-QPCR are described below.\nLymphocyte subset analysis: Fluorescent labeled monoclonal antibodies to lymphocyte surface markers were used to quantitate populations of T cells (CD2+), helper T cells (CD4^+), suppressor T cells (CD8^+), and B cells (CD20^+) in maternal (1 ml) and fetal (150 μl) blood using procedures previously described (Ho R J, Agy M B, Morton W R, et al. Development of a chronically catheterized maternal-fetal macaque model to study in utero mother-to-fetus HIV transmission: a preliminary report. J Med Primatol 1996;25 (3):218-24).\nPlasma cholesterol level was monitored to evaluate the effects of cholesterol given as a part of lipid formulation."}, "HIV-2287 [6]": {"system": "HIV-2287", "assay": "In situ hybridization of lymph node sections for HIV-2 RNA", "type": "in vivo, Macaca nemestrina", "conditions": "for viral RNA in lymph nodes: 20 mg/kg for 14 days, necropsy day 20", "experimental": "Histological analysis of HIV-infected cells: Histologic sections of lymph node were examined using in situ hybridization for HIV-2 gag RNA. Biopsy and postmortem tissues were preserved in fresh 4% deionized paraformaldehyde, embedded in paraffin wax, and sectioned to 5 μm. The sections were deparaffinized, rehydrated in Tris-buffered saline (TBS; 0.1 M Tris [pH 7.5], 0.1 M NaCl), digested with proteinase K (20-40 μg/ml, 37° C., for 30-50 min; Sigma), and treated overnight at 37° C. in a RNase-free DNase-1 solution (Boehringer Mannheim), as described previously.\nThe sections were then incubated for 5 min at 70° C. followed by 4 h at 42° C. with antisense RNA probes directed either to SW (strain mac251; Zhang Z Q, Schuler T, Cavert W, et al. Reversibility of the pathological changes in the follicular dendritic cell network with treatment of HIV-1 infection. Proc Nati Acad Sci U S A 1999;96 (9):5169-72) or HIV-2 gag-pol (stain 287; gag 2639-1080, pol 3473-2306; Galabru J, Rey-Cuille M A, Hovanessian A G. Nucleotide sequence of the HIV-2 EHO genome, a divergent HIV-2 isolate. AIDS Res Hum Retroviruses 1995;11 [7]:873-4). The RNA probes were constructed by cloning cDNA into transcription vectors under the control of T7 and SP6 RNA polymerase promoters (pGEM, Promega; Madison, Wis.). […] HIV-2 RNA was detected after autoradiographic exposures of 24 and 96 h.\nThe presence of viral RNA was indicated by deposition of silver grains on top of cells or as aggregates within lymph node germinal centers (FIG. 7) at a frequency statistically greater than background, as determined using Image-Pro® Plus software (Media Cybernetics, Silver Spring, Md.). Nonspecific background was determined in two ways with equivalent results. Silver grains were counted over 100 germinal center cells in tissue sections from mock-inoculated uninfected animals after hybridization to the HIV-2 or SIV antisense probe, or over cells from the tissues of infected monkeys after hybridization to noncomplimentary ‘sense’ RNA probes. […]"}, "[7]": {"conditions": "SC 10 mg/kg single dose", "experimental": "These samples were resuspended in 100 μL, and a 10 μL sample was injected onto an RX-C8 column (21 mm×15 cm column) and eluted isocratically with a mobile phase containing 20 mM ammonium acetate in acetonitrile:water (65:35, v/v) running at 0.38 ml/min. […] Under these conditions, the detection limit was 100 pg, which made it possible to measure drug levels, extract RNA and DNA, isolate cells for detailed analyses of vRNA and vDNA-infected cells in lymph nodes, and fix the tissue for pathological analyses from limited sample size."}, "[8]": {"conditions": "Example 10; SC 20 mg/kg/day, two animals"}, "[9]": {"conditions": "cited from earlier work"}, "[10]": {"conditions": "axillary lymph node / plasma, axillary"}, "[11]": {"conditions": "inguinal lymph node / plasma, inguinal"}},
  "note": "Entries after “also recorded” stand apart in the source; their conditions may differ. Where two headings read alike, the source gives them in different places.",
  "data": [
    {"smiles": "CC(C)(C)NC(=O)[C@@H]1CN(Cc2cccnc2)CCN1C[C@@H](O)C[C@@H](Cc1ccccc1)C(=O)N[C@H]1c2ccccc2C[C@H]1O", "note": "[Indinavir, N-(2(R)-hydroxy-1(S)-indanyl)-2(R)-phenylmethyl-4-(S)-hydroxy-5-(1-(4-(3-pyridyl-methyl)-2(S)-N′-(t-butylcarboxamido)-piperazinyl))-pentaneamide]", "values": [
      {"measurement": "% Associated with lipid-drug nanoparticles: Indinavir", "setting": "[1]; DSPC:mPE-DSPE formulation", "value": "97.5 ± 2.50", "unit": "%"},
      {"measurement": "Degree of Lipid Association (% total)", "setting": "[1]; drug associated with lipid membranes, pH 7.4", "value": "97.5 ± 2.5", "unit": "% total"},
      {"measurement": "incorporation into lipid-drug complexes (in words)", "setting": "[1]; neutral pH", "value": "completely or nearly completely; also recorded: incorporate nearly completely"},
      {"measurement": "indinavir preparation incorporated in lipid-indinavir complex", "setting": "[1]; neutral pH, lipid-to-drug molar ratio about 5:1 to about 10:1", "value": "80-100%"},
      {"measurement": "drug incorporated into the lipid bilayer of liposomes", "setting": "[1]; pH 4, lipid-to-drug ratio 5:1 (m/m)", "value": "< 30", "unit": "%"},
      {"measurement": "drug associated with liposome", "setting": "[1]; pH 7.4, lipid-to-drug ratio 5:1 (m/m)", "value": "85-95%"},
      {"measurement": "Size in Diameter", "setting": "[2]", "value": "69 ± 7", "unit": "nm"},
      {"measurement": "EC50", "setting": "HIV-2287 [3]; Human immunodeficiency virus 2, CEM174, 96 h, read-out: EC50 (50% effective inhibitory concentration)", "value": "50 to 80", "unit": "nM"},
      {"measurement": "EC50", "setting": "HIV-2287 [3]; Human immunodeficiency virus 2, CEM174, read-out: in vitro ED50 against HIV-2287", "value": "60 to 80", "unit": "nM"},
      {"measurement": "EC50", "setting": "HIV-1LAV; CD8-depleted human PBMCs, HIV-1 p24 antigen", "value": "> 150", "unit": "nM"},
      {"measurement": "inhibition at 15 µM", "setting": "HIV-1LAV; at 15 μM", "value": "< 100", "unit": "%"},
      {"measurement": "Kp at […]", "setting": "[4]; axillary lymph node / plasma", "value": 0.01},
      {"measurement": "Kp at 2 hr", "setting": "[4]; [10]", "value": 0.02},
      {"measurement": "Kp at 3.75 hr", "setting": "[4]; [10]", "value": 0.0035},
      {"measurement": "concentration at 2 hr", "setting": "[4]; axillary lymph node, axillary", "value": 0.084, "unit": "ng/mL"},
      {"measurement": "concentration at 3.75 hr", "setting": "[4]; axillary lymph node, axillary", "value": 0.141, "unit": "ng/mL"},
      {"measurement": "Kp at […]", "setting": "[4]; inguinal lymph node / plasma", "value": 0.03},
      {"measurement": "Kp at 2 hr", "setting": "[4]; [11]", "value": 0.01},
      {"measurement": "Kp at 3.75 hr", "setting": "[4]; [11]", "value": 0.01},
      {"measurement": "concentration at 2 hr", "setting": "[4]; inguinal lymph node, inguinal", "value": 0.056, "unit": "ng/mL"},
      {"measurement": "concentration at 3.75 hr", "setting": "[4]; inguinal lymph node, inguinal", "value": 0.481, "unit": "ng/mL"},
      {"measurement": "concentration at 2 hr", "setting": "[4]; plasma", "value": 5.2, "unit": "ng/mL"},
      {"measurement": "concentration at 3.75 hr", "setting": "[4]; plasma", "value": 39.8, "unit": "ng/mL"},
      {"measurement": "plasma virus load", "setting": "HIV-2287 [5]; Example 10: SC 20 mg/kg/day for 14 days, 30 weeks post-infection", "value": "did not exhibit a significant virus load reduction"},
      {"measurement": "CD4+ T cells after two weeks of treatment (in words)", "setting": "HIV-2287 [5]; four HIV-2287-infected animals, Table 5", "value": "the same pattern was not observed"},
      {"measurement": "CD4+ T cell, After", "setting": "HIV-2287 [5]; macaque 215", "value": 1473, "unit": "per μL"},
      {"measurement": "CD4+ T cell, Before", "setting": "HIV-2287 [5]; macaque 215", "value": 1946, "unit": "per μL"},
      {"measurement": "CD4+ T cell, After", "setting": "HIV-2287 [5]; macaque 283", "value": 1051, "unit": "per μL"},
      {"measurement": "CD4+ T cell, Before", "setting": "HIV-2287 [5]; macaque 283", "value": 1650, "unit": "per μL"},
      {"measurement": "HIV-2 RNA in lymph node germinal centers (in words)", "setting": "HIV-2287 [6]; axillary and mesenteric lymph nodes", "value": "showed aggregates of HIV-RNA in lymph node germinal centers"},
      {"measurement": "viral RNA in lymph nodes", "setting": "HIV-2287 [6]; macaque 215", "value": "13,290±1,450 gag-pol RNA copies/50× field"},
      {"measurement": "viral RNA in lymph nodes", "setting": "HIV-2287 [6]; macaque 283", "value": "8,134±890 gag-pol RNA copies/50× field"},
      {"measurement": "time of plasma drug concentration peak", "setting": "[7]", "value": "0.5 to 1", "unit": "h"},
      {"measurement": "time by which drug levels subsided below detectable levels", "setting": "[8]", "value": "4 to 5", "unit": "h"},
      {"measurement": "LogP (lipophilicity)", "setting": "[9]; pH 3.5", "value": 0},
      {"measurement": "LogP (lipophilicity)", "setting": "[9]; pH 5", "value": 1.8},
      {"measurement": "LogP (lipophilicity)", "setting": "[9]; pH 7", "value": 3}
    ]}
  ]
}
